Results: ChEMBL document CHEMBL1201862, “PubChem BioAssay data set” (2004)
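How tested: cells in 96-well plates exposed to compound for 48 hours at five concentrations. GI50 is the concentration that inhibits growth by half.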 The source made the active and inactive calls. No stated cut-off is given here; in the data, active = GI50 up to about 1.1 µM and inactive = higher.

Key:
Experiment in all cases: DTP human tumour cell line panel, 48 h
SN12C = test system: SN12C
MDA-N = test system: MDA-N
UO-31 = test system: UO-31
NCI-H522 = test system: NCI-H522
LOX IMVI = test system: LOX IMVI
CAKI-1 = test system: CAKI-1
HCT-116 = test system: HCT-116
NCI-H23 = test system: NCI-H23
CCRF-CEM = test system: CCRF-CEM
UACC-257 = test system: UACC-257
NCI-H226 = test system: NCI-H226
HT-29 = test system: HT-29
SW-620 = test system: SW-620
U-251 = test system: U-251
MCF7 = test system: MCF7
ACHN = test system: ACHN
EKVX = test system: EKVX
RPMI-8226 = test system: RPMI-8226
MDA-MB-231 = test system: MDA-MB-231
SK-MEL-28 = test system: SK-MEL-28

SMILES: C=C1C(=O)OC2C1CCC(=C)C1CC(O)C(=C)C12 (stereo not given)
- GI50 (SN12C): 16.2 µM (inactive)
- GI50 (MDA-N): 11 µM (inactive)
- GI50 (UO-31): 15.3 µM (inactive)
- GI50 (NCI-H522): 2.58 µM (inactive)
- GI50 (LOX IMVI): 7.52 µM (inactive)
- GI50 (CAKI-1): 4.28 µM (inactive)
- GI50 (HCT-116): 12.7 µM (inactive)
- GI50 (NCI-H23): 18.7 µM (inactive)
- GI50 (CCRF-CEM): 2.21 µM (inactive)
- GI50 (UACC-257): 12.9 µM (inactive)
- GI50 (NCI-H226): 27.1 µM (inactive)
- GI50 (HT-29): 5.57 µM (inactive)
- GI50 (SW-620): 16 µM (inactive)
- GI50 (U-251): 23.3 µM (inactive)
- GI50 (MCF7): 7.43 µM (inactive)
- GI50 (ACHN): 3.18 µM (inactive)
- GI50 (EKVX): 7.16 µM (inactive)
- GI50 (RPMI-8226): 5.78 µM (inactive)
- GI50 (MDA-MB-231): 16.3 µM (inactive)
- GI50 (SK-MEL-28): 14.4 µM (inactive)

SMILES: O=C1c2ccccc2C(=O)c2sc(Nc3ccc([N+](=O)[O-])cc3)nc21
- GI50 (SN12C): 3.19 µM (inactive)
- GI50 (MDA-N): 2 µM (inactive)
- GI50 (UO-31): 3.87 µM (inactive)
- GI50 (NCI-H522): 2.55 µM (inactive)
- GI50 (LOX IMVI): 2.03 µM (inactive)
- GI50 (CAKI-1): 4.25 µM (inactive)
- GI50 (HCT-116): 6.62 µM (inactive)
- GI50 (NCI-H23): 2.67 µM (inactive)
- GI50 (CCRF-CEM): 1.97 µM (inactive)
- GI50 (UACC-257): 4.9 µM (inactive)
- GI50 (NCI-H226): 17.2 µM (inactive)
- GI50 (HT-29): 23.8 µM (inactive)
- GI50 (SW-620): 4 µM (inactive)
- GI50 (U-251): 3.85 µM (inactive)
- GI50 (MCF7): 9.35 µM (inactive)
- GI50 (ACHN): 2.99 µM (inactive)
- GI50 (EKVX): 14.7 µM (inactive)
- GI50 (RPMI-8226): 2.35 µM (inactive)
- GI50 (MDA-MB-231): 2.3 µM (inactive)
- GI50 (SK-MEL-28): 10.6 µM (inactive)

SMILES: C[As](C)SCC(NC(=O)CCC(N)C(=O)O)C(=O)NCC(=O)O.c1ccncc1 (stereo not given)
- GI50 (SN12C): 0.506 µM (active)
- GI50 (MDA-N): 0.0431 µM (active)
- GI50 (UO-31): 0.182 µM (active)
- GI50 (NCI-H522): 0.0824 µM (active)
- GI50 (LOX IMVI): 0.18 µM (active)
- GI50 (CAKI-1): 0.0662 µM (active)
- GI50 (HCT-116): 0.198 µM (active)
- GI50 (NCI-H23): 0.284 µM (active)
- GI50 (CCRF-CEM): 0.0492 µM (active)
- GI50 (UACC-257): 0.459 µM (active)
- GI50 (NCI-H226): 0.361 µM (active)
- GI50 (HT-29): 0.431 µM (active)
- GI50 (SW-620): 0.0855 µM (active)
- GI50 (U-251): 0.902 µM (active)
- GI50 (MCF7): 0.126 µM (active)
- GI50 (ACHN): 0.117 µM (active)
- GI50 (EKVX): 0.182 µM (active)
- GI50 (RPMI-8226): 0.0421 µM (active)
- GI50 (MDA-MB-231): 0.261 µM (active)
- GI50 (SK-MEL-28): 0.421 µM (active)

SMILES: O=C(CCCCCCCCC(=O)N1C(=O)CC(=O)N(c2ccc(Cl)cc2)C1=S)N1C(=O)CC(=O)N(c2ccc(Cl)cc2)C1=S
- GI50 (SN12C): > 100 µM (inactive)
- GI50 (MDA-N): 38.6 µM (inactive)
- GI50 (UO-31): 35.7 µM (inactive)
- GI50 (NCI-H522): 29 µM (inactive)
- GI50 (LOX IMVI): 54.8 µM (inactive)
- GI50 (CAKI-1): > 100 µM (inactive)
- GI50 (HCT-116): 48.5 µM (inactive)
- GI50 (NCI-H23): 58.5 µM (inactive)
- GI50 (CCRF-CEM): 30.9 µM (inactive)
- GI50 (UACC-257): > 100 µM (inactive)
- GI50 (NCI-H226): > 100 µM (inactive)
- GI50 (HT-29): 73.5 µM (inactive)
- GI50 (SW-620): > 100 µM (inactive)
- GI50 (U-251): > 100 µM (inactive)
- GI50 (MCF7): 37.8 µM (inactive)
- GI50 (ACHN): 35.4 µM (inactive)
- GI50 (EKVX): 47.4 µM (inactive)
- GI50 (RPMI-8226): 30.6 µM (inactive)
- GI50 (MDA-MB-231): 70.8 µM (inactive)
- GI50 (SK-MEL-28): 70.3 µM (inactive)

SMILES: O=C(O)c1cc(/N=N/c2ccc([N+](=O)[O-])cc2)ccc1O
- GI50 (SN12C): 30.8 µM (inactive)
- GI50 (MDA-N): 43.9 µM (inactive)
- GI50 (UO-31): 16.6 µM (inactive)
- GI50 (NCI-H522): 28 µM (inactive)
- GI50 (LOX IMVI): 39.7 µM (inactive)
- GI50 (CAKI-1): 29.2 µM (inactive)
- GI50 (HCT-116): 30.5 µM (inactive)
- GI50 (NCI-H23): 40.2 µM (inactive)
- GI50 (CCRF-CEM): 28.4 µM (inactive)
- GI50 (UACC-257): 24 µM (inactive)
- GI50 (NCI-H226): 17 µM (inactive)
- GI50 (HT-29): 28.8 µM (inactive)
- GI50 (SW-620): 36 µM (inactive)
- GI50 (U-251): 21.6 µM (inactive)
- GI50 (MCF7): 30.8 µM (inactive)
- GI50 (ACHN): 37.3 µM (inactive)
- GI50 (EKVX): 19 µM (inactive)
- GI50 (RPMI-8226): 21.1 µM (inactive)
- GI50 (MDA-MB-231): 26.9 µM (inactive)
- GI50 (SK-MEL-28): 37.7 µM (inactive)

SMILES: C[n+]1c(-c2ccc(/C=N/NC(=O)c3ccc(C(=O)N/N=C/c4ccc(-c5cn6ccccc6[n+]5C)cc4)cc3)cc2)cn2ccccc21
- GI50 (SN12C): > 100 µM (inactive)
- GI50 (MDA-N): > 70 µM (inactive)
- GI50 (UO-31): > 59.8 µM (inactive)
- GI50 (NCI-H522): > 100 µM (inactive)
- GI50 (LOX IMVI): > 100 µM (inactive)
- GI50 (CAKI-1): > 72.9 µM (inactive)
- GI50 (HCT-116): > 100 µM (inactive)
- GI50 (NCI-H23): > 100 µM (inactive)
- GI50 (CCRF-CEM): > 34.3 µM (inactive)
- GI50 (UACC-257): > 63.7 µM (inactive)
- GI50 (NCI-H226): > 100 µM (inactive)
- GI50 (HT-29): > 100 µM (inactive)
- GI50 (SW-620): > 100 µM (inactive)
- GI50 (U-251): > 100 µM (inactive)
- GI50 (MCF7): > 100 µM (inactive)
- GI50 (ACHN): > 73.3 µM (inactive)
- GI50 (EKVX): > 100 µM (inactive)
- GI50 (RPMI-8226): > 100 µM (inactive)
- GI50 (MDA-MB-231): > 74.3 µM (inactive)
- GI50 (SK-MEL-28): > 100 µM (inactive)

SMILES: O=c1c(Cc2ccccc2Cc2c(O)oc3ccccc3c2=O)c(O)oc2ccccc12
- GI50 (SN12C): > 100 µM (inactive)
- GI50 (MDA-N): > 100 µM (inactive)
- GI50 (UO-31): > 100 µM (inactive)
- GI50 (NCI-H522): > 100 µM (inactive)
- GI50 (LOX IMVI): > 100 µM (inactive)
- GI50 (CAKI-1): > 100 µM (inactive)
- GI50 (HCT-116): > 100 µM (inactive)
- GI50 (NCI-H23): > 100 µM (inactive)
- GI50 (CCRF-CEM): > 100 µM (inactive)
- GI50 (UACC-257): > 100 µM (inactive)
- GI50 (NCI-H226): > 100 µM (inactive)
- GI50 (HT-29): > 100 µM (inactive)
- GI50 (SW-620): > 100 µM (inactive)
- GI50 (U-251): > 100 µM (inactive)
- GI50 (MCF7): > 100 µM (inactive)
- GI50 (ACHN): > 100 µM (inactive)
- GI50 (EKVX): > 100 µM (inactive)
- GI50 (RPMI-8226): > 100 µM (inactive)
- GI50 (MDA-MB-231): > 100 µM (inactive)
- GI50 (SK-MEL-28): > 100 µM (inactive)
